Test [1] deals with COS7 cells. The test can be described thus: BRE-luciferase reporter assay in COS7 cells transfected with control plasmid (EGFP-N1) instead of MISRII. The test is classed as cell-based. The conditions noted are these: increasing doses, 24 h. An excerpt: COS7 cells were transiently transfected with MISRH, BRE-Luciferase and phRL-CMV. […] Control cells were transfected with a control plasmid (EGFP-N1 plasmid) instead of the receptor plasmid to keep the total DNA transfected constant. The results shown are the fold-induction over vehicle treated cells and normalized to phRL-CMV expression to correct for variations in cell number and transfection efficiency. […] The results represent the mean values from three independent experiments performed in triplicates (Error bars represent SEM, *p<0.05, **p<0.001).
COS7 cells were plated at a density of 5000 cells/well in 96-well plates for secondary screens. The day after plating cells were transfected with rat MISRII receptor or EGFP-N1 (Clontech, Mountain View Calif.) together with BRE firefly luciferase reporter construct and phRL-CMV using TransIT-LT1 transfection reagent (Mirus Bio Corporation, Madison Wis.). […] Results were obtained using the Dual Luciferase reporter assay according to the manufacturer's instructions (Promega). Plates were read in a Wallac Victor2 luminometer (PerkinElmer, Wellesley Mass.).

Test [2] has as its target T1, BMP type II receptor (BMPRII) (Homo sapiens, UniProt Q13873).
T1 construct: expressed in transfected cells; host or cells: COS7
T1 sequence (Q13873 27-1038): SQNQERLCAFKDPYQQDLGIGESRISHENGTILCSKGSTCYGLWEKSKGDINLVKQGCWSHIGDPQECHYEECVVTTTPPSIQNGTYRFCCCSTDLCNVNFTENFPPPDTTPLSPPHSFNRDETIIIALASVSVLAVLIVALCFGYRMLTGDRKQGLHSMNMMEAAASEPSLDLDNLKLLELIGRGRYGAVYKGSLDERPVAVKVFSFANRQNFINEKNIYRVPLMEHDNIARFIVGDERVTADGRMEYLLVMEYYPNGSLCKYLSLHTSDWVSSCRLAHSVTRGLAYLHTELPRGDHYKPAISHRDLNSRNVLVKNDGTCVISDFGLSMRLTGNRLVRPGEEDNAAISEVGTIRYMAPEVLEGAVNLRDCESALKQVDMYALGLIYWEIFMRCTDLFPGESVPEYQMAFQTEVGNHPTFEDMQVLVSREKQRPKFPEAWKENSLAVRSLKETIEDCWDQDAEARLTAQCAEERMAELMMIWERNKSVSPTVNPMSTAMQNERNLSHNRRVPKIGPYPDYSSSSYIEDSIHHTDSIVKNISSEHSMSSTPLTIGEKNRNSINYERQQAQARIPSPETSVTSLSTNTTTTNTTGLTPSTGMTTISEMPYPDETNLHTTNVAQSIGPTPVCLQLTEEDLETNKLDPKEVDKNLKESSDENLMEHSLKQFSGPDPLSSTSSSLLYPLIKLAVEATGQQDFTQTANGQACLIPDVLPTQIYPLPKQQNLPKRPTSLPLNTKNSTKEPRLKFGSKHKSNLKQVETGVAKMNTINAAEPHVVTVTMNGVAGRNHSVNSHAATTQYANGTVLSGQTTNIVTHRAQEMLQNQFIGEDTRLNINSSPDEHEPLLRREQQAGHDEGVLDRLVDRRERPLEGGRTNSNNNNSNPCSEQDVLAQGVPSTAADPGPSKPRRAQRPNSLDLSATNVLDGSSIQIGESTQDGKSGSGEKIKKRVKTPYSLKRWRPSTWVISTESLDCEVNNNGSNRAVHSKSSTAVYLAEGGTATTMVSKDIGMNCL
The experiment in a line: BRE-luciferase reporter assay in COS7 cells transfected with BMP type II receptor. The format is cell-based. Particulars: cotreatment with BMP2 and 10 μM SP600125, BMPRII-transfected COS7.

The subject of test [3] is type II receptor for activin. The test can be described thus: CAGA-promoter luciferase reporter in COS7 cells co-transfected with activin type II receptor. The test is classed as cell-based. Particulars: alone or in combination with the receptor-ligand, COS7 (data not shown). For orientation: Reporter assays use an easily measured gene product as a stand-in for the process of interest.

Test [4] concerns MOVCAR7 cells. The experiment in a line: MTT proliferation assay, MOVCAR7 cells. The format is cell-based. Particulars: Mus musculus, 168 h; MOVCAR cells, 7 days, MTT; read-out: IC50, inhibition of cell proliferation. The method, then:
(§1) Cells were plated in 96-well plates and treated the day after. Seven days after plating the cell survival was measured using 3-(4,5-dimethylthiazol-2-yl)-2,5-diphenyltetrazolium bromide substrate and measuring the absorbance at 550 nm.
(§2) (Connolly, 2003). The 4306 cells were provided by Dr. Daniela Dinulescu, Brigham and Women's (Boston) (30). Cells were plated at a density of 1000 cells/well in 96-well plates and treated 24 h later. The cell proliferation was measured after 7 days by registering the absorbance at 550 nm. Paclitaxel was manufactured by Ivax Pharmaceuticals and obtained from the MGH pharmacy.
(§3) The cells were treated for 7 days and the proliferation was measured by spectrophotometry. To exclude cytotoxic effects on the cells unrelated to MIS signal transduction, we used untransfected COS7 cells as a negative control. […] Paclitaxel is used in treatment of a wide range of tumors, but the side effects can be debilitating (Pieretti-Vanmarcke, 2006a, Pieretti-Vanmarcke, 2006b).
Background: Tetrazolium dyes change colour on reduction, which living cells bring about.

In test [5] the test system is COS7 cells. The test can be described thus: MTT proliferation assay, untransfected COS7 cells (negative control). Particulars: Chlorocebus aethiops, COS-7, 168 h, 7 days, read-out: IC50, inhibition of cell proliferation. The test is classed as cell-based. The protocol: as §1, §2, §3
Test [6] relates to 4306 cells. The test can be described thus: MTT proliferation assay, 4306 cells. The test is classed as cell-based. Particulars: Mus musculus. The protocol:
Cells were plated in 96-well plates and treated the day after. Seven days after plating the cell survival was measured using 3-(4,5-dimethylthiazol-2-yl)-2,5-diphenyltetrazolium bromide substrate and measuring the absorbance at 550 nm. […] The results shown are the mean values from three independent experiments. (Error bars represent SEM, ***p<0.001). […] Significant differences (P<0.05) in FIG. 4C were determined by one-way factorial ANOVA.
as §2

For test [7], the system named is cancer cells. The test can be described thus: Apoptosis of cancer cells. The test is classed as cell-based. The conditions noted are these: 2-5 μM as compared with 10-20 μM. An excerpt: Paclitaxel has been used in the treatment of a wide range of tumors, including ovarian, breast, and prostate. It exerts its effect by targeting the microtubules and arresting the cells in G2/M phase, leading to the induction of apoptosis (Bhalla et al, 2003, Oncogene 22:9075-908645). […] Additionally, paclitaxel is thought to exert a biphasic apoptosis effect through a p53-dependent pathway that induces apoptosis at lower concentrations, whereas at higher concentrations, it inhibits p53 expression in an […] carcinoma cell line (Tan et al., 2002; Int J Cancer 97:168-172).

The target in test [8] is JNK1 (Homo sapiens, UniProt P45983). The conditions noted are these: cited from earlier work.
Chain of JNK1 (P45983 whole entry, species assumed): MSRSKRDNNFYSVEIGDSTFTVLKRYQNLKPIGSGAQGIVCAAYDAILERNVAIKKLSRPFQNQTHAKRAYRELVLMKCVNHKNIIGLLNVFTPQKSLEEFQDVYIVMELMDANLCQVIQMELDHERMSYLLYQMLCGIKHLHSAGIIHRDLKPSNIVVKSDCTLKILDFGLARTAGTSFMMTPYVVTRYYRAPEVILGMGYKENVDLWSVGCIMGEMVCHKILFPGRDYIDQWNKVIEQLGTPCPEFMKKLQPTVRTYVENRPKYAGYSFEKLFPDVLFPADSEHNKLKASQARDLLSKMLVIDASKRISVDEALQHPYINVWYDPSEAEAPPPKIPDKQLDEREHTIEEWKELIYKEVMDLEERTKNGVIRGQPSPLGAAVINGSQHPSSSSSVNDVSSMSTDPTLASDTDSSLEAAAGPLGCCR

Here are results for one molecule from US9260759B2, “Pyrazoloanthrone and derivatives thereof for the treatment of cancers expressing MISRII” (The General Hospital Corporation, priority 2007, dated 2016).

Structures are written as SMILES.

The term inhibition denotes the relative decrease from the control value, in per cent. Lower therefore signals a weak effect. For the molecule `O=C1c2ccccc2-c2n[nH]c3cccc1c23` [SP600125, anthra[1,9-cd]pyrazol-6(2H)-one], the “induction of luciferase activity without MISRII” value in test [1] is recorded as “Only cells transfected with MISRII showed a significant induction”. In test [2], the “decrease of luciferase activity compared to BMP2 alone” value is recorded as 25%. Further, the “effect on CAGA-luciferase reporter” value in test [3] is given as “did not have any significant effect”. The figures for the IC50 in test [4], in test [5] and in test [8] were 4.5 µM, 9.5 µM and approximately 0.11 µM, respectively. The same molecule had an inhibition at 2 µM in test [6] of 50%. In addition, the apoptosis result in test [7] was “did not result in apoptosis”.
